Assay: Antiproliferative activity against human WSUDLCL2 cells assessed as inhibition of cell growth measured after 6 days by CellTiter-Glo luminescent assay
Assay type: functional
Conditions: WSUDLCL2, 144 h, time 6 day

Structure (SMILES)	GI50 [nM]
CCN(C(C)=O)c1cc(-c2ccc(CN3CCOCC3)cc2)cc(C(=O)NCc2c(C)cc(C)[nH]c2=O)c1C	13000
CC[C@H](C)n1cc(C)c2c(C(=O)NCc3c(C)cc(C)[nH]c3=O)cc(-c3ccc(N4CCNCC4)nc3)cc21 [GSK2816126]	5000
CCN(C(=O)C1CCC1)c1cc(-c2ccc(CN3CCOCC3)cc2)cc(C(=O)NCc2c(C)cc(C)[nH]c2=O)c1C	900
CCN(C(=O)C1CC1)c1cc(-c2ccc(N3CCN(CC4CC4)CC3)nc2)cc(C(=O)NCc2c(C)cc(C)[nH]c2=O)c1C	200
CCN(C(=O)C1CC1)c1cc(-c2cnc(N3CCN(CC4CC4)CC3)c(C)c2)cc(C(=O)NCc2c(C)cc(C)[nH]c2=O)c1C	300
CCN(C(=O)C1CC1)c1cc(-c2ccc(NC(=O)c3cccs3)cc2)cc(C(=O)NCc2c(C)cc(C)[nH]c2=O)c1C	900
CCN1CCN(c2ccc(-c3cc(C(=O)NCc4c(C)cc(C)[nH]c4=O)c(C)c(N(CC)C(=O)C4CC4)c3)cc2)CC1	200

Assay: Half life in rat at 10 mg/kg, po
Assay type: ADME, organism-based
Conditions: in vivo

half-life [h]	Structure (SMILES)
1.46	CCN(C(=O)C1CC1)c1cc(-c2ccc(N3CCN(CC4CC4)CC3)nc2)cc(C(=O)NCc2c(C)cc(C)[nH]c2=O)c1C
2.08	CCN1CCN(c2ccc(-c3cc(C(=O)NCc4c(C)cc(C)[nH]c4=O)c(C)c(N(CC)C(=O)C4CC4)c3)cc2)CC1

Same assay, conditions: in vivo, 10 mg/kg

t1/2 [h]	Structure (SMILES)
1.82	CCN(C(=O)C1CC1)c1cc(-c2cnc(N3CCN(CC4CC4)CC3)c(C)c2)cc(C(=O)NCc2c(C)cc(C)[nH]c2=O)c1C

Assay: Cmax in rat at 10 mg/kg, po
Assay type: ADME, organism-based
Design: route oral, dose 10 mg/kg
Conditions: in vivo

Cmax [ng/mL]	Structure (SMILES)
67	CCN(C(=O)C1CC1)c1cc(-c2ccc(N3CCN(CC4CC4)CC3)nc2)cc(C(=O)NCc2c(C)cc(C)[nH]c2=O)c1C
42	CCN(C(=O)C1CC1)c1cc(-c2cnc(N3CCN(CC4CC4)CC3)c(C)c2)cc(C(=O)NCc2c(C)cc(C)[nH]c2=O)c1C
115	CCN1CCN(c2ccc(-c3cc(C(=O)NCc4c(C)cc(C)[nH]c4=O)c(C)c(N(CC)C(=O)C4CC4)c3)cc2)CC1

Assay: AUC (0 to infinity) in rat at 10 mg/kg, po
Assay type: ADME, organism-based
Design: time infinity, route oral, dose 10 mg/kg
Conditions: in vivo

AUC(0-inf) [ng·h/mL]	AUC [ng·h/mL]	Structure (SMILES)
260	–	CCN(C(=O)C1CC1)c1cc(-c2ccc(N3CCN(CC4CC4)CC3)nc2)cc(C(=O)NCc2c(C)cc(C)[nH]c2=O)c1C
–	132	CCN(C(=O)C1CC1)c1cc(-c2cnc(N3CCN(CC4CC4)CC3)c(C)c2)cc(C(=O)NCc2c(C)cc(C)[nH]c2=O)c1C
–	242	CCN1CCN(c2ccc(-c3cc(C(=O)NCc4c(C)cc(C)[nH]c4=O)c(C)c(N(CC)C(=O)C4CC4)c3)cc2)CC1

Assay: Apparent volume of distribution in rat at 10 mg/kg, po
Assay type: ADME, organism-based
Conditions: in vivo

Vz [L/kg]	Structure (SMILES)
84.455	CCN(C(=O)C1CC1)c1cc(-c2ccc(N3CCN(CC4CC4)CC3)nc2)cc(C(=O)NCc2c(C)cc(C)[nH]c2=O)c1C
205.232	CCN(C(=O)C1CC1)c1cc(-c2cnc(N3CCN(CC4CC4)CC3)c(C)c2)cc(C(=O)NCc2c(C)cc(C)[nH]c2=O)c1C
470.567	CCN1CCN(c2ccc(-c3cc(C(=O)NCc4c(C)cc(C)[nH]c4=O)c(C)c(N(CC)C(=O)C4CC4)c3)cc2)CC1

Assay: Clearance in rat at 10 mg/kg, po
Assay type: ADME, organism-based
Conditions: in vivo

CL/F [mL/min/kg]	Structure (SMILES)
675	CCN(C(=O)C1CC1)c1cc(-c2ccc(N3CCN(CC4CC4)CC3)nc2)cc(C(=O)NCc2c(C)cc(C)[nH]c2=O)c1C

Same assay, conditions: in vivo, 10 mg/kg

CL [mL/min/kg]	Structure (SMILES)
155.8	CCN(C(=O)C1CC1)c1cc(-c2cnc(N3CCN(CC4CC4)CC3)c(C)c2)cc(C(=O)NCc2c(C)cc(C)[nH]c2=O)c1C
1805.68	CCN1CCN(c2ccc(-c3cc(C(=O)NCc4c(C)cc(C)[nH]c4=O)c(C)c(N(CC)C(=O)C4CC4)c3)cc2)CC1

Assay: Oral bioavailability in rat at 10 mg/kg
Assay type: ADME, organism-based
Conditions: in vivo

bioavailability [%]	Structure (SMILES)
9.4	CCN(C(=O)C1CC1)c1cc(-c2ccc(N3CCN(CC4CC4)CC3)nc2)cc(C(=O)NCc2c(C)cc(C)[nH]c2=O)c1C
4.8	CCN(C(=O)C1CC1)c1cc(-c2cnc(N3CCN(CC4CC4)CC3)c(C)c2)cc(C(=O)NCc2c(C)cc(C)[nH]c2=O)c1C
13	CCN1CCN(c2ccc(-c3cc(C(=O)NCc4c(C)cc(C)[nH]c4=O)c(C)c(N(CC)C(=O)C4CC4)c3)cc2)CC1

Assay: Half life in rat at 1 mg/kg, iv
Assay type: ADME, organism-based
Conditions: in vivo

half-life [h]	Structure (SMILES)
1.25	CCN(C(=O)C1CC1)c1cc(-c2ccc(N3CCN(CC4CC4)CC3)nc2)cc(C(=O)NCc2c(C)cc(C)[nH]c2=O)c1C
1.55	CCN1CCN(c2ccc(-c3cc(C(=O)NCc4c(C)cc(C)[nH]c4=O)c(C)c(N(CC)C(=O)C4CC4)c3)cc2)CC1

Same assay, conditions: in vivo, 1 mg/kg

t1/2 [h]	Structure (SMILES)
1.79	CCN(C(=O)C1CC1)c1cc(-c2cnc(N3CCN(CC4CC4)CC3)c(C)c2)cc(C(=O)NCc2c(C)cc(C)[nH]c2=O)c1C

Assay: Cmax in rat at 1 mg/kg, iv
Assay type: ADME, organism-based
Design: route intravenous, dose 1 mg/kg
Conditions: in vivo

Cmax [ng/mL]	Structure (SMILES)
673	CCN(C(=O)C1CC1)c1cc(-c2ccc(N3CCN(CC4CC4)CC3)nc2)cc(C(=O)NCc2c(C)cc(C)[nH]c2=O)c1C
609	CCN(C(=O)C1CC1)c1cc(-c2cnc(N3CCN(CC4CC4)CC3)c(C)c2)cc(C(=O)NCc2c(C)cc(C)[nH]c2=O)c1C
444	CCN1CCN(c2ccc(-c3cc(C(=O)NCc4c(C)cc(C)[nH]c4=O)c(C)c(N(CC)C(=O)C4CC4)c3)cc2)CC1

Assay: AUC (0 to infinity) in rat at 1 mg/kg, iv
Assay type: ADME, organism-based
Design: route intravenous, time infinity, dose 1 mg/kg
Conditions: in vivo

AUC(0-inf) [ng·h/mL]	Structure (SMILES)
277	CCN(C(=O)C1CC1)c1cc(-c2ccc(N3CCN(CC4CC4)CC3)nc2)cc(C(=O)NCc2c(C)cc(C)[nH]c2=O)c1C
277	CCN(C(=O)C1CC1)c1cc(-c2cnc(N3CCN(CC4CC4)CC3)c(C)c2)cc(C(=O)NCc2c(C)cc(C)[nH]c2=O)c1C
241	CCN1CCN(c2ccc(-c3cc(C(=O)NCc4c(C)cc(C)[nH]c4=O)c(C)c(N(CC)C(=O)C4CC4)c3)cc2)CC1

Assay: Apparent volume of distribution in rat at 1 mg/kg, iv
Assay type: ADME, organism-based
Conditions: in vivo, 1 mg/kg

Vz [L/kg]	Structure (SMILES)
79.554	CCN(C(=O)C1CC1)c1cc(-c2cnc(N3CCN(CC4CC4)CC3)c(C)c2)cc(C(=O)NCc2c(C)cc(C)[nH]c2=O)c1C

Same assay, conditions: in vivo, read-out: Vz

Vd [L/kg]	Structure (SMILES)
6.5	CCN(C(=O)C1CC1)c1cc(-c2ccc(N3CCN(CC4CC4)CC3)nc2)cc(C(=O)NCc2c(C)cc(C)[nH]c2=O)c1C
9.32	CCN1CCN(c2ccc(-c3cc(C(=O)NCc4c(C)cc(C)[nH]c4=O)c(C)c(N(CC)C(=O)C4CC4)c3)cc2)CC1

Assay: Clearance in rat at 1 mg/kg, iv
Assay type: ADME, organism-based
Conditions: in vivo

clearance [mL/min/kg]	Structure (SMILES)
60.3	CCN(C(=O)C1CC1)c1cc(-c2ccc(N3CCN(CC4CC4)CC3)nc2)cc(C(=O)NCc2c(C)cc(C)[nH]c2=O)c1C
69.9	CCN1CCN(c2ccc(-c3cc(C(=O)NCc4c(C)cc(C)[nH]c4=O)c(C)c(N(CC)C(=O)C4CC4)c3)cc2)CC1

Same assay, conditions: in vivo, 1 mg/kg

CL [mL/min/kg]	Structure (SMILES)
60.87	CCN(C(=O)C1CC1)c1cc(-c2cnc(N3CCN(CC4CC4)CC3)c(C)c2)cc(C(=O)NCc2c(C)cc(C)[nH]c2=O)c1C

Reference: ChEMBL document CHEMBL4831544, “Discovery of IHMT-EZH2-115 as a Potent and Selective Enhancer of Zeste Homolog 2 (EZH2) Inhibitor for the Treatment of B-Cell Lymphomas” (J Med Chem, 2021)
